Measured values: patent US5538950A, “Endothelin antagonists and their preparation” (Fujisawa Pharmaceutical Co., Ltd., priority 1991, dated 1996)
Where a name gives a salt, the structure may show the parent alone.

Tested on: endothelin receptor (crude receptor membrane preparation of porcine aorta)
Experiment: Radioligand binding assay: 125I-endothelin-1 binding to porcine aorta membrane
Settings: ^125 I-Endothelin-1 1.67×10^-11 M, room temperature, 60 minutes, read-out: Effect on specific binding of ^125 I-endothelin-1 in porcine aorta membrane, IC50
Description: Radioligand binding assay:
(a) Crude receptor membrane preparation:
Porcine aorta was purchased from Pel-Freez Biologicals (U.S.A.) and stored at -80° C. until use.
Porcine aorta (50 g) was thawed and dissected free from fatty tissue, minced with scissors and then homogenized with a polytron (Brinkmann PT-20, maximal speed for 3×10 sec) in 100 ml buffer (0.25M sucrose, 10 mM Tris-HCl, 0.1 mM EDTA).
The homogenate was centrifuged at 10,000 g for 20 minutes at 4° C.
The supernatant, containing the plasma membrane fraction, was centrifuged at 100,000 g for 60 minutes at 4° C., and then resultant pellets were referred to as crude membrane fractions.
The pellets were resuspended in 25 ml of binding assay buffer (50 mM Tris-HCl, 100 mM NaCl, 5 mM MgCl2, 1.5 μg/ml phenylmethylsulfonyl fluoride (PMSF), 120 μg/ml bacitracin, 12 μg/ml leupepcin, 6 μg/ml chymostain, 0.1% bovine serum albumin (BSA), pH 7.5).
The aorta membrane fractions were stored at -80° C. until use.
(b) ^125 I-endothelin-1 binding assay: […]
After incubation, the incubation mixture were filtered through Glass-fiber GF/C filter (pretreated with 0.1% polyethylene imine for 3 hours prior to use) using cell harvester (Brandel M-24S). […] The filters were counted in a gamma counter (Packard Auto Gamma Model 5650).

CC(C)C[C@H](CC(=O)N1CCCCC1)C(=O)N[C@H](Cc1cn(C)c2ccccc12)C(=O)N[C@H](Cc1ccccn1)C(N)=O [Compound A, [(2R)-2-(Piperidinocarbonyl)methyl-4-methylvaleryl]-D-TrP(Me)-D-Pya-NH2 hydrochloride]
IC50: 5.2 nM
